Laboratory results: PubChem BioAssay (NCI)
Where “and” joins values, the source holds several entries; their conditions need not be identical. Equal values may be shown once.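 Each compound was tested at five concentrations against cells in 96-well plates for 48 hours. Abbreviation: GI50, concentration required for 50% inhibition of growth. TGI: concentration producing complete growth inhibition.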

How the values were obtained:
Assay in all cases: NCI anticancer screen, dose series, 48 h
[1] = tested on: 786-0 renal
[2] = tested on: ACHN renal
[3] = tested on: HS 578T breast
[4] = tested on: MDA-MB-231 breast
[5] = tested on: OVCAR-3 ovarian
[6] = tested on: OVCAR-4 ovarian
[7] = tested on: OVCAR-5 ovarian
[8] = tested on: PC-3 prostate
[9] = tested on: SK-MEL-2 melanoma
[10] = tested on: UACC-62 melanoma

SMILES | GI50 [1] [µM] | TGI [1] | GI50 [2] [µM] | TGI [2] | TGI [3] [µM] | TGI [4] [µM] | GI50 [5] [µM] | TGI [5] | GI50 [6] [µM] | TGI [6] | GI50 [7] [µM] | TGI [7] | TGI [8] [µM] | GI50 [9] [µM] | TGI [9] | GI50 [10] [µM] | TGI [10] | GI50 [3] [µM] | GI50 [4] [µM] | GI50 [8] [µM]
Cc1c(N)nc(C2CC(=O)N2CC(N)C(N)=O)nc1C(=O)NC(C(=O)NC(C)C(O)C(C)C(=O)NC(C(=O)NCCc1nc(-c2nc(C(=O)NCCNCC(C)O)cs2)cs1)C(C)O)C(OC1OC(CO)C(O)C(O)C1OC1OC(CO)C(O)C(OC(N)=O)C1O)c1cnc[nH]1 (stereo unspecified) | 2.3 | 50 µM and 36.8 µM | 0.135 | 3.85 µM and 1.2 µM | 50 | > 50 | 1.63 | 20.6 µM and > 55 µM | 10.7 | 50 µM and > 100 µM | 9.82 | 50 µM and 57.4 µM | > 50 | 31.7 | 50 µM and > 79.2 µM | 0.756 | 6.43 µM and 7.31 µM |  |  | 
Oc1ccc(/C=N/Nc2nnc(N/N=C/c3ccc(O)cc3O)c3ccccc23)c(O)c1 | 0.593 | 2.46 µM | 0.358 | 0.422 µM and 3.94 µM | 0.954 | > 46.2 | 0.385 | 0.489 µM and 1.9 µM | 0.449 | 5.31 µM | 1.36 | 15.8 µM | 8.82 | 0.674 | 0.623 µM and 2.57 µM | 0.318 | 0.602 µM and 1.58 µM | 0.5 | 1.35 | 
O=C(Nc1cccc(C(F)(F)F)c1)Nc1ccc(OCc2nnc(-c3ccccc3)o2)c(F)c1 | 6.18 | 22.4 µM | 2.92 | 12.3 µM | 14.7 | 22.3 | 4.23 | 17 µM | 4 | 30.1 µM | 18.9 | > 100 µM | 13.7 | 7.16 | 25.8 µM | 4.1 | 24.6 µM | 2.5 | 3.3 | 2.01
COc1cccc2c(Nc3ccc(C(=O)NCCN4CCNCC4)cc3)cc(-c3ccccc3)nc12 | 51.1 | > 100 µM | 18.8 | 40.8 µM | > 100 | > 100 | > 100 | > 100 µM | 17.4 | 74.2 µM | > 100 | > 100 µM | > 100 | 19.9 | 51.7 µM | 65.6 | > 100 µM | 46.9 | 19.9 | 25.8
CC(=O)Nc1ccc(C(=O)COc2cccc(/C=C3\CCc4ccccc4C3=O)c2)cc1 | 26.5 | > 100 µM | 21.9 | 78.4 µM | > 100 | 85.9 | 17.4 | 39.1 µM | 1.01 | 26.1 µM | 19.6 | 36.3 µM | 47.2 | 14.8 | 65.8 µM | 12.5 | 32.7 µM | 32.6 | 18.7 | 10.1
Cn1c(=O)c(Oc2ccc(F)cc2F)cc2cnc(NC3CCC(O)CC3)nc21 (stereo unspecified) | > 25 | > 25 µM | > 25 | > 25 µM | > 25 | > 25 | > 25 | > 25 µM | > 25 | > 25 µM | > 25 | > 25 µM | > 25 | > 25 | > 25 µM | > 25 | > 25 µM | > 25 | > 25 | > 25
CCC(=C(c1ccc(OCCN(CC)CC)cc1)c1ccc(OCCN(CC)CC)cc1)c1ccc(Cl)cc1 | 0.565 | 1.08 µM | 0.596 | 1.08 µM | 1.57 | 1.09 | 0.577 | 1.14 µM | 0.714 | 1.66 µM | 0.559 | 1.06 µM | 1.24 | 0.634 | 1.27 µM | 0.592 | 1.13 µM | 0.668 | 0.573 | 0.581
OCCn1c(-c2ccncc2)c(-c2ccc(F)cc2)c2ncccc21 | > 25 | > 25 µM | 24.8 | > 25 µM | > 25 | > 25 | > 25 | > 25 µM | > 25 | > 25 µM | > 25 | > 25 µM | > 25 | > 25 | > 25 µM | > 25 | > 25 µM | > 25 | > 25 | > 25
